Source: a melting point compilation (Tetko et al.; mined from patent text by program, amines drawn as free bases though some values may be those of a salt)

Row | Compound | melting point [°C]
1 | O=c1nc(-c2ccc[nH]2)sc2ccccc12 | 202 to 203
2 | COc1cc(NCCCO)c([N+](=O)[O-])cc1O | 144
3 | Cc1c(-c2ccc(=O)[nH]c2)cccc1[N+](=O)[O-] | 214 to 216
4 | CN(C)Cc1cc(NC(=O)OC(C)(C)C)c(N)cc1-c1ccc(F)cc1 | 97 to 125
5 | CC(C)Cn1nc(OCCCc2ccc(OC(C)C)cc2Oc2ncc(C(F)(F)F)cc2Cl)cc1CCC(=O)O | 71 to 73
6 | COc1ccccc1C1=C(NC(=O)Nc2ccc(N(C)C)cc2)SCc2ccccc21 | 128 to 130
7 | COc1ccc(C2CCc3cc(Br)ccc3O2)cc1 (stereo unspecified) | 121 to 123
8 | CCOC(=O)c1cc(-c2ccccc2OC)[nH]c1N | 128
9 | CCCCOc1ccc(S(=O)(=O)C2(C(=O)NO)CCN(CC)CC2)cc1 | 98
10 | COC(=O)C(=O)c1cc2c3c(c1)CCN3CCC2 | 102 to 105
11 | Cc1cc(-n2ccnc2)c2cccc(OCc3c(Cl)ccc(S(=O)(=O)N4CCC[C@H]4C(=O)N(C)CCCN(C)CCCCO)c3Cl)c2n1 | 82
12 | OCCc1c(-c2ccccc2)nc(Cl)n2ncnc12 | 104 to 105
13 | COc1ccccc1N1CCN(CCCNC(=O)c2csc3c(=O)cc(C(F)(F)F)oc23)CC1 | 170 to 177
14 | Cc1ccc(-c2nc(CCOc3ccc(CN(O)C(N)=O)cc3)c(C)o2)cc1 | 145 to 146
15 | N=C(N)Nc1nc(-c2ccccc2[N+](=O)[O-])cs1 | 176 to 178
16 | CC1COC(c2nsc3ccc(-n4c(=O)cc(C(F)(F)F)n(C)c4=O)cc23)O1 (stereo unspecified) | 81 to 83
17 | COC(=O)c1ccc(N2C(=O)C(O)=C(C(=O)c3ccc(C)cc3)C2c2ccc(C(C)(C)C)cc2)nc1 (stereo unspecified) | 287 to 288
18 | N#CCCn1cnc([N+](=O)[O-])c1 | 112 to 113
19 | CC(C)NC1=Nc2cccnc2SC1 | 135 to 139
20 | CCOc1ccc2[nH]c3c([N+](=O)[O-])ccc(Cl)c3c(=O)c2c1 | 244 to 246
21 | O=C(Nc1nnco1)C1c2ccccc2Oc2ccccc21 | 239 to 240
22 | Clc1cc(Cl)nc(NC2CCCC2)n1 | 48 to 52
23 | C=CC[C@H](C(N)=O)[C@@H](CC(C)C)C(=O)NC1N=C(N2CCCCCC2)c2ccccc2N(C)C1=O (stereo partly specified) | 232 to 237
24 | CC(=O)Nc1nc(CCc2ccc(CC#N)cc2)cs1 | 160 to 161

Row | Compound | melting point [°C]
25 | O=C1CCC(n2cnc3ccc(Br)cc3c2=O)C(=O)N1 (stereo unspecified) | 273 to 275
26 | Cc1ccc2c(C(=O)NC(C)C)c(NC(=O)c3cc(C(F)(F)F)nn3-c3ncccc3Cl)c(C)cc2n1 | > 240
27 | Cc1c(C)c2ccc(OCCCCN3CCN(c4cccc(Cl)c4Cl)CC3)nc2[nH]c1=O | 161 to 163
28 | CCC(=O)NC1c2cc3nonc3cc2OC(C)(C)C1O (stereo unspecified) | 203 to 205
29 | CCCCNc1ncnc2c1ncn2CCCN1CCC(NC(=O)c2ccccc2)CC1 | 190 to 192
30 | N#Cc1[nH]ccc1-c1ccc(Cl)cc1 | 114 to 115
31 | Cn1nc(-c2ccc(F)cc2)c(-c2ccncc2)c1C(O)CCc1ccccc1 (stereo unspecified) | 62 to 65
32 | CN1CCN(c2ccc(F)cc2C=C2CCCN(CCc3ccc(Cl)cc3)C2=O)CC1 | 88 to 90
33 | CCCCn1c(=O)c2cc(C(=O)OCC)cn2c2ccccc21 | 146 to 148
34 | N#Cc1c(NC2CCCCC2)cccc1-c1ccccc1 | 125 to 126
35 | CC(=O)c1cc(Cl)cc(Oc2ncccc2C(=O)NC[C@H]2CC[C@H](C(C)(C)O)CC2)c1 | 133 to 135
36 | C[C@@H](Nc1ncnc2[nH]c(-c3cccc([N+](=O)[O-])c3)cc12)c1ccccc1 | > 250
37 | COC(=O)C(C)c1ccc2cc(OC(=O)COCc3ccccc3)ccc2c1 (stereo unspecified) | 58 to 60
38 | CCn1c(=O)n(CCc2ccc(C)cc2)c(=O)n(C(C)(C)C)c1=O | 64
39 | Cc1c(Cl)cc(NC(=O)CCl)c(O)c1Cl | 149
40 | CC(NC(=O)C(F)c1cc(F)cc(F)c1)C(=O)NC1N=C(c2ccccc2)c2ccccc2N(C)C1=O (stereo unspecified) | 119 to 120
41 | O=C(NC(Cc1ccc(OCc2ccoc2)cc1)C(=O)O)c1cn2nc(-c3ccc(Cl)cc3)ccc2n1 (stereo unspecified) | 220
42 | Cc1nc(-c2ccc(-c3cc(C(F)(F)F)nn3-c3ccc(S(C)(=O)=O)c(F)c3)cc2)cs1 | 139 to 141
43 | CC(=O)NC(C)COC1CCC(c2cc3ccc(OCC4CC4)cc3o2)CC1 (stereo unspecified) | 104 to 105
44 | CC[C@H]1CC[C@H](CCc2ccc(C(=O)CCC(=O)O)cc2)CC1 | 141 to 143
45 | Cc1nc(N2CCN(CC3CC3(F)F)C2=O)sc1C(=O)NCc1ncco1 (stereo unspecified) | 156 to 158
46 | OCc1cn(-c2ccc3c(c2)OC(F)(F)O3)cn1 | 163 to 164
47 | O=C(O)C(=O)c1ccc(OCCCc2ccc3ccccc3c2)cc1 | 123 to 124
48 | CC(=O)c1cc(O)c(C)c(C)c1O | 151

Row | Compound | melting point [°C]
49 | CC(=O)C1CCC2C3=C(C(=O)CC12C)C1(C)CCC(O)CC1CC3 (stereo unspecified) | 170 to 172
50 | O=c1[nH]cc(-c2cc(-c3cnc4ccccc4c3)ccn2)n1-c1ccc(N2CCNCC2)c(C(F)(F)F)c1 | 155
51 | CCc1c(C)nc(OC)c(NC(=O)C(C)(C)C)c1Cc1cc(C)cc(C)c1 | 138 to 139
52 | Nc1c2c(nc3ccccc13)CCc1cn(N)nc1-2 | > 250
53 | COC(=O)c1cccc(C(=O)Nc2ccc(-n3nc(C(F)(F)F)cc3C(F)(F)F)cc2)c1 | 174 to 175
54 | CCCC=Cc1ncn2c1CN(C)C(=O)c1cc(F)ccc1-2 | 150 to 151
55 | CC(C)(C)OC(=O)N[C@H]1CCc2ccc(OCCCC(=O)O)cc2C1 | 150 to 153
56 | CCN(C(=O)c1ccccc1)[C@@H](Cc1c[nH]c2ccccc12)C(=O)OC(=O)c1ccc(N)cc1 | 181 to 183
57 | NCC1Cc2cc(-c3ccc(C(F)(F)F)cc3)cc(F)c2O1 (stereo unspecified) | > 250
58 | c1cnc2cc[nH]c2c1 | 126 to 128
59 | CCCc1c(C(=O)C=C(C)C)c2ccc(C(N)=O)cc2n1Cc1cc2c(cc1Cl)OCO2 | 227 to 229
60 | CNC(=O)c1cc2nc(C(F)(F)F)ccc2cc1NC(=O)c1cc(Br)nn1-c1ncccc1Cl | 127 to 129
61 | CCCCOC(Cl)C(=O)NCC1OC(C)C(C)O1 (stereo unspecified) | 28
62 | CCOC(=O)c1cc(=O)c2cc(O)ccc2s1 | 217 to 218
63 | CN(c1nc(=O)n(C)cc1F)S(=O)(=O)Cc1ccccc1 | 159 to 160
64 | COc1ccc(N(C(=O)OC(C)(C)C)S(=O)(=O)c2ccc(F)cc2)cc1OC | 99 to 102
65 | Cn1cc(SCc2ccccc2)c(=O)c(-c2cccc(C(F)(F)F)c2)c1 | 121 to 122
66 | CCN(CC)CCOc1ccc2cc3ccc(OCCN(CC)CC)c(CN4C(=O)c5ccccc5C4=O)c3nc2c1CN1C(=O)c2ccccc2C1=O | 242 to 244
67 | COc1ccc(CN2Cc3cc(N(C)C)ccc3N=C2N)cc1 | 175 to 180
68 | COC(=O)C(CCN(C(C)C)C(C)C)(CC(=O)N1CCCCC1)c1ccccc1Cl (stereo unspecified) | 104 to 106
69 | COC(=O)Cc1ccc(S(C)(=O)=O)c(S(C)(=O)=O)c1 | 157 to 158
70 | OCCCc1cc2c(cc1O)CCO2 | 103 to 104
71 | C=CCOc1cc(-n2c(OCC)nc(C(F)(F)F)cc2=O)c(F)cc1Br | 68 to 70
